# Reference: patent US20250313563A1, “GLYCOGEN SYNTHASE KINASE 3 INHIBITORS AND USES THEREOF” (The Broad Institute, Inc., priority 2022, published 2025)
# pIC50: −log10 of the molar value. Where two headings read alike, the source gives them in different places.
# Assays:
# [1] = biological target: GSK3α (GST-full length GSK3α) (Homo sapiens (Human), UniProt P49840); assay: GSK3α TR-FRET kinase assay; format: biochemical
# In short: (§1)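 IC50 came from the normalized 665/615 nm TR-FRET ratio plotted against log compound concentration. The Tb-labelled pSer641 antibody and streptavidin-d2 detected phosphorylation of biotinylated S645-primed glycogen synthase peptide (200 nM) by 1 nM full-length GST-kinase. ATP was 4 μM for α, 2 μM for β, or 1 mM.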
# [2] = biological target: GSK3b (GST-full length GSK3b) (Homo sapiens (Human), UniProt P49841); assay: GSK3b TR-FRET kinase assay; format: biochemical
# In short: as §1
# [3] = 1 nM GSK3α, 4 μM ATP, 30 minute preincubation, Table 16, read-out: GSK3-A TR-FRET BIOCHEMICAL (TR-FRET)
# [4] = 1 nM GSK3b, 2 μM ATP, 30 minute preincubation, Table 16, read-out: GSK3-B TR-FRET BIOCHEMICAL (TR-FRET)
# [5] = 1 nM GSK3α, 4 μM ATP, 30 minute preincubation, geometric mean, read-out: GSK3-A TR-FRET BIOCHEMICAL (TR-FRET), GMean, IC50
# [6] = 1 nM GSK3b, 2 μM ATP, 30 minute preincubation, geometric mean, read-out: GSK3-B TR-FRET BIOCHEMICAL (TR-FRET), GMean, IC50
# [7] = 1 nM GSK3α, 4 μM ATP, 30 minute preincubation, read-out: GSK3-A TR-FRET BIOCHEMICAL (TR-FRET), IC50
# [8] = 1 nM GSK3b, 2 μM ATP, 30 minute preincubation, read-out: GSK3-B TR-FRET BIOCHEMICAL (TR-FRET), IC50
# [9] = read-out: GSK3-A (TR-FRET 1 mM ATP), GMean, IC50, 1 mM ATP, geometric mean
# [10] = read-out: GSK3-B (TR-FRET 1 mM ATP), GMean, IC50, 1 mM ATP, geometric mean
# GSK3b (GST-full length GSK3b), sequence (P49841 whole entry): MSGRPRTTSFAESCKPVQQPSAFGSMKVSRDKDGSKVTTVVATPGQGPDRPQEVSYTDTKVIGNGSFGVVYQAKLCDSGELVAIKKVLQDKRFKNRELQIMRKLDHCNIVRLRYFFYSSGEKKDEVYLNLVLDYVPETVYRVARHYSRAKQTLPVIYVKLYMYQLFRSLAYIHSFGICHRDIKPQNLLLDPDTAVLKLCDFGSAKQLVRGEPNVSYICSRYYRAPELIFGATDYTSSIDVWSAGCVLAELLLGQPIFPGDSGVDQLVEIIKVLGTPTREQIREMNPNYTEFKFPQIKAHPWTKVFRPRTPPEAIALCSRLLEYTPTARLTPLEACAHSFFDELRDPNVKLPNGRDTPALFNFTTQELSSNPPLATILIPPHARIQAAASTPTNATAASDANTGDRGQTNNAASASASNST
# GSK3α (GST-full length GSK3α), sequence (P49840 whole entry): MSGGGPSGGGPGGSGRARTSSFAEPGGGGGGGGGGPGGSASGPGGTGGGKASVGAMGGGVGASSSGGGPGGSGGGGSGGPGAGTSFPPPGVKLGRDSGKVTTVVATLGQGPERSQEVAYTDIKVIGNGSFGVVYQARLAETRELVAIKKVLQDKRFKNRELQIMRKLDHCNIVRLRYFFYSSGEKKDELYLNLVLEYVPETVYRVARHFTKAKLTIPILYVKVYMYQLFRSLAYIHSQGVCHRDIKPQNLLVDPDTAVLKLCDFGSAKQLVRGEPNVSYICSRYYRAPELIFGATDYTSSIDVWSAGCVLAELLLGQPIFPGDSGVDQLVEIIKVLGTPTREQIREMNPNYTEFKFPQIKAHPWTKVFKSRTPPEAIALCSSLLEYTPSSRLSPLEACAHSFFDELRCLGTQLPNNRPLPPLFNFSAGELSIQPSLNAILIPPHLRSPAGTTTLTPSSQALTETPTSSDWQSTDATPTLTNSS
"pIC50 [1, 3]","pIC50 [2, 4]","pIC50 [1, 5]","pIC50 [2, 6]",SMILES,further results
6.00 to 7.00,5.30 to 6.00,–,–,CCC1(c2cccc(-c3cnnn3C)c2)C2=C(CC(C)(C)CC2=O)Nc2n[nH]cc21 (stereo not shown) [Compound 947824],–
–,–,≥ 7.00,≥ 7.00,CC[C@]1(c2cccc(N(C)c3ncccn3)c2)C2=C(CC(C)(C)NC2=O)Nc2n[nH]cc21 [Compound 947826],–
–,–,≥ 7.00,6.00 to 7.00,CC1(C)CC2=C(C(=O)N1)C1(CCN(S(=O)(=O)c3cnn(C(C)(C)C)c3)CC1)c1c[nH]nc1N2 [Compound 947835],"pIC50 [1, 7]: ≥ 7.00; pIC50 [2, 8]: 6.00 to 7.00"
–,–,≥ 7.00,6.00 to 7.00,CCn1ccc(S(=O)(=O)N2CCC3(CC2)C2=C(CC(C)(C)NC2=O)Nc2n[nH]cc23)n1 [Compound 947836],"pIC50 [1, 7]: ≥ 7.00; pIC50 [2, 8]: 6.00 to 7.00"
–,–,≥ 7.00,≥ 7.00,CCc1ncc(S(=O)(=O)N2CCC3(CC2)C2=C(CC(C)(C)NC2=O)Nc2n[nH]cc23)s1 [Compound 947837],"pIC50 [1, 7]: ≥ 7.00; pIC50 [2, 8]: ≥ 7.00"
–,–,≥ 7.00,≥ 7.00,CCC1(c2cccc(-c3ccnc(C)c3)c2)C2=C(CC(C)(C)NC2=O)Nc2n[nH]c(C(F)(F)F)c21 (stereo not shown) [Compound 947858],–
–,–,≥ 7.00,≥ 7.00,CCC1(c2cccc(S(=O)(=O)C3CC3)c2)C2=C(CC(C)(C)NC2=O)Nc2n[nH]c(C(F)(F)F)c21 (stereo not shown) [Compound 947859],"pIC50 [1, 9]: ≥ 7.00; pIC50 [2, 10]: ≥ 7.00"
–,–,≥ 7.00,≥ 7.00,CCC1(c2cccc(N3CCCC3)c2)C2=C(CC(C)(C)NC2=O)Nc2n[nH]c(C(F)(F)F)c21 (stereo not shown) [Compound 947860],"pIC50 [1, 9]: ≥ 7.00; pIC50 [2, 10]: 6.00 to 7.00"
–,–,≥ 7.00,≥ 7.00,CCC1(c2cccc(-c3ccnc4c3CCC4)c2)C2=C(CC(C)(C)NC2=O)Nc2n[nH]c(C(F)(F)F)c21 (stereo not shown) [Compound 947862],"pIC50 [1, 9]: ≥ 7.00; pIC50 [2, 10]: 6.00 to 7.00"
–,–,≥ 7.00,≥ 7.00,CCC1(c2cccc(N3CCOCC3)c2)C2=C(CC(C)(C)NC2=O)Nc2n[nH]c(C(F)(F)F)c21 (stereo not shown) [Compound 947863],–
–,–,≥ 7.00,6.00 to 7.00,CCC1(c2cccc(C(F)F)c2)C2=C(CC(C)(C)NC2=O)Nc2n[nH]cc21 (stereo not shown) [Compound 947864],–
–,–,≥ 7.00,≥ 7.00,CCC1(c2cccc(-c3ccncc3F)c2)C2=C(CC(C)(C)NC2=O)Nc2n[nH]c(C(F)(F)F)c21 (stereo not shown) [Compound 947866],–
≥ 7.00,≥ 7.00,–,–,CCC1(c2cccc(OC(C)C)c2)C2=C(CC(C)(C)CC2=O)Nc2[nH]nc(C(F)(F)F)c21 (stereo not shown) [Compound 947867],"pIC50 [1, 9]: ≥ 7.00; pIC50 [2, 10]: ≥ 7.00"
–,–,≥ 7.00,≥ 7.00,CC[C@]1(c2cccc(-c3ccncc3F)c2)C2=C(CC(C)(C)NC2=O)Nc2n[nH]cc21 [Compound 947869],"pIC50 [1, 9]: ≥ 7.00; pIC50 [2, 10]: 5.30 to 6.00"
–,–,≥ 7.00,6.00 to 7.00,CCC1(c2cccc(S(=O)(=O)C(C)C)c2)C2=C(CC(C)(C)NC2=O)Nc2[nH]nc(C)c21 (stereo not shown) [Compound 947870],–
–,–,≥ 7.00,6.00 to 7.00,CC[C@]1(c2cccc(-c3cnn(C)c3)c2)C2=C(CC(C)(C)NC2=O)Nc2n[nH]c(C(F)(F)F)c21 [Compound 947871],–
6.00 to 7.00,5.30 to 6.00,–,–,CC[C@@]1(c2cccc(OC(C)C)c2)C2=C(CC(C)(C)CC2=O)Nc2n[nH]c(C(F)(F)F)c21 [Compound 947872],–
–,–,6.00 to 7.00,5.30 to 6.00,CCC1(c2cccc(-c3ccncc3F)c2)C2=C(CC(C)(C)NC2=O)Nc2n[nH]cc21 (stereo not shown) [Compound 947874],–
–,–,≥ 7.00,≥ 7.00,CCC1(c2cccc(S(=O)(=O)C(C)C)c2)C2=C(CC(C)(C)NC2=O)Nc2n[nH]c(C)c21 (stereo not shown) [Compound 947876],"pIC50 [1, 9]: ≥ 7.00; pIC50 [2, 10]: 6.00 to 7.00"
≥ 7.00,≥ 7.00,–,–,Cc1csc(S(=O)(=O)N2CCC3(CC2)C2=C(CC(C)(C)CC2=O)Nc2n[nH]cc23)n1 [Compound 947897],–
≥ 7.00,6.00 to 7.00,–,–,Cn1cc(S(=O)(=O)N2CCC3(CC2)C2=C(CC(C)(C)CC2=O)Nc2n[nH]cc23)nn1 [Compound 947898],–
≥ 7.00,≥ 7.00,–,–,Cc1ncc(S(=O)(=O)N2CCC3(CC2)C2=C(CC(C)(C)CC2=O)Nc2n[nH]cc23)s1 [Compound 947899],–
≥ 7.00,≥ 7.00,–,–,CC1(C)CC(=O)C2=C(C1)Nc1n[nH]cc1C21CCN(S(=O)(=O)c2ccc3c(c2)OCCO3)CC1 [Compound 947900],–
≥ 7.00,≥ 7.00,–,–,CC1(C)CC(=O)C2=C(C1)Nc1n[nH]cc1C21CCN(S(=O)(=O)c2cccc3ccncc23)CC1 [Compound 947901],–

"pIC50 [1, 3]","pIC50 [2, 4]","pIC50 [1, 5]","pIC50 [2, 6]",SMILES,further results
≥ 7.00,≥ 7.00,–,–,CC1(C)CC(=O)C2=C(C1)Nc1n[nH]cc1C21CCN(S(=O)(=O)c2ccc(C(F)(F)F)cn2)CC1 [Compound 947902],–
≥ 7.00,≥ 7.00,–,–,CC1(C)CC(=O)C2=C(C1)Nc1n[nH]cc1C21CCN(S(=O)(=O)c2cnn(CCF)c2)CC1 [Compound 947903],–
≥ 7.00,≥ 7.00,–,–,CC1(C)CC(=O)C2=C(C1)Nc1n[nH]cc1C21CCN(S(=O)(=O)c2cnn(-c3ccccc3)c2)CC1 [Compound 947904],–
–,–,≥ 7.00,6.00 to 7.00,CCC1(c2cccc(-c3ccnn3C)c2)C2=C(CC(C)(COC)NC2=O)Nc2n[nH]cc21 (stereo not shown) [Compound 947905],–
–,–,5.30 to 6.00,< 5.30,CCC1(c2cccc(-c3ccnn3C)c2)C2=C(CC(C)(COC)NC2=O)Nc2n[nH]cc21 (stereo not shown) [Compound 947907],–
–,–,5.30 to 6.00,< 5.30,CC[C@@]1(c2cccc(-c3ccnn3C)c2)C2=C(C[C@@](C)(COC)NC2=O)Nc2n[nH]cc21 [Compound 947908],–
–,–,≥ 7.00,≥ 7.00,CC[C@]1(c2cccc(-c3ccncc3C)c2)C2=C(C[C@@]3(CCCOC3)NC2=O)Nc2n[nH]cc21 [Compound 947910],–
–,–,≥ 7.00,≥ 7.00,CC[C@@]1(c2cccc(-c3ccncc3C)c2)C2=C(C[C@@]3(CCCOC3)NC2=O)Nc2n[nH]cc21 [Compound 947911],–
–,–,6.00 to 7.00,< 5.30,CCC1(c2cccc(-c3ccnn3C)c2)C2=C(CC3(CCOC3)NC2=O)Nc2n[nH]cc21 (stereo not shown) [Compound 948014],–
–,–,< 5.30,< 5.30,CCC1(c2cccc(-c3ccnn3C)c2)C2=C(CC3(CCOC3)NC2=O)Nc2n[nH]cc21 (stereo not shown) [Compound 948016],–
–,–,≥ 7.00,≥ 7.00,CC[C@]1(c2cccc(-c3ccnn3C)c2)C2=C(CC3(CCCC3)NC2=O)Nc2n[nH]cc21 [Compound 948018],–
–,–,5.30 to 6.00,< 5.30,CC[C@@]1(c2cccc(-c3ccnn3C)c2)C2=C(CC3(CCCC3)NC2=O)Nc2n[nH]cc21 [Compound 948019],–
–,–,6.00 to 7.00,6.00 to 7.00,CCC1(c2cccc(-c3ccncc3Cl)c2)C2=C(CC(C)(C)NC2=O)Nc2n[nH]cc21 (stereo not shown) [Compound 948020],–
–,–,6.00 to 7.00,< 5.30,CCC1(c2cccc(-c3ccncc3C)c2)C2=C(CC3(CCCC3)NC2=O)Nc2n[nH]cc21 (stereo not shown) [Compound 948021],–
–,–,–,–,CC1(C)CC(=O)C2=C(C1)Nc1n[nH]cc1[C@]21COC2(CN(C(=O)Cc3ccccc3)C2)C1 [Compound 948036],"pIC50 [1, 7]: 6.00 to 7.00; pIC50 [2, 8]: 6.00 to 7.00"
–,–,–,–,CC1(C)CC(=O)C2=C(C1)Nc1n[nH]cc1[C@@]21COC2(CN(C(=O)Cc3ccccc3)C2)C1 [Compound 948037],"pIC50 [1, 7]: ≥ 7.00; pIC50 [1, 9]: ≥ 7.00; pIC50 [2, 8]: ≥ 7.00; pIC50 [2, 10]: ≥ 7.00"
–,–,–,–,Cc1ccc(C(=O)N2CC3(C2)CC2(CO3)C3=C(CC(C)(C)CC3=O)Nc3n[nH]cc32)cc1C (stereo not shown) [Compound 948038],"pIC50 [1, 9]: ≥ 7.00; pIC50 [2, 10]: 6.00 to 7.00"
–,–,–,–,Cc1ccc(C(=O)N2CC3(C2)C[C@]2(CO3)C3=C(CC(C)(C)CC3=O)Nc3n[nH]cc32)cc1C [Compound 948039],"pIC50 [1, 7]: 6.00 to 7.00; pIC50 [2, 8]: 5.30 to 6.00"
–,–,–,–,CC(=O)N1CCC2(C1)CC1(CO2)C2=C(CC(C)(C)CC2=O)Nc2n[nH]cc21 (stereo not shown) [Compound 948040],"pIC50 [1, 7]: ≥ 7.00; pIC50 [2, 8]: 6.00 to 7.00"
6.00 to 7.00,5.30 to 6.00,–,–,CCC1(c2cccc(C(C)c3ncccn3)c2)C2=C(CC(C)(C)CC2=O)Nc2n[nH]cc21 (stereo not shown) [Compound 948057],–
≥ 7.00,≥ 7.00,–,–,CC[C@]1(c2cccc([C@H](C)c3ncccn3)c2)C2=C(CC(C)(C)CC2=O)Nc2n[nH]cc21 [Compound 948060],"pIC50 [1, 9]: 6.00 to 7.00; pIC50 [2, 10]: 5.30 to 6.00"
6.00 to 7.00,5.30 to 6.00,–,–,CCC1(c2cccc(C(C)c3ncccn3)c2)C2=C(CC(C)(C)CC2=O)Nc2n[nH]cc21 (stereo not shown) [Compound 948061],–
6.00 to 7.00,5.30 to 6.00,–,–,CCC1(c2cccc(-c3ccnc(C)n3)c2)C2=C(CC(C)(C)CC2=O)Nc2n[nH]cc21 (stereo not shown) [Compound 948088],–
≥ 7.00,6.00 to 7.00,–,–,CCC1(c2cccc(-c3nc(C)ncc3C)c2)C2=C(CC(C)(C)CC2=O)Nc2n[nH]cc21 (stereo not shown) [Compound 948091],–
